Experimental data published in patent US20200407717A1, “METHODS OF MODULATING ANTISENSE ACTIVITY” (Ionis Pharmaceuticals, Inc., priority 2018, published 2020).
e = 2'-O-(2-methoxyethyl) (MOE); d = 2'-deoxy (DNA)

Tested on: Drosha mRNA
Assay: Antisense activity by RT-qPCR, Drosha, A431 cells
Assay type: cell-based, Human
Description: A431 cells were grown at 10,000 cells per well and pre-treated with a variety of growth factors to determine if the addition of exogenous growth factors affects antisense activity or uptake of modified antisense oligonucleotides in a cell. The growth factors used were EGF, insulin growth factor (IGF), transforming growth factor (TGF), […] (VEGF), hepatocyte growth factor (HGF), platelet growth factor (PGF) and fibroblasts growth factor (FGF). To test antisense activity, cells were treated for 4 hours with a growth factor or vehicle alone, and then treated with compound no. 25690 (complementary to Drosha), compound no. 395254 (complementary to Malat1), or vehicle alone. RNA was isolated from the cells and Drosha or Malat1 RNA levels were measured by RT-qPCR. Human primer probe set 13816 (forward sequence […], designated herein as SEQ ID NO: 3; reverse sequence […], designated herein as SEQ ID NO: 4; probe sequence […], designated herein as SEQ ID NO: 5) was used to measure Drosha mRNA levels and primer probe set RTS2736 (forward sequence […], designated herein as SEQ ID NO: 6; reverse sequence […], designated herein as SEQ ID NO: 7; probe sequence TGCCACATCGCCACCCCGT, designated herein as SEQ ID NO: 8) was used to measure Malat1 RNA levels. Drosha and Malat1 RNA levels were normalized to total RNA content, as measured by RIBOGREEN®. Results are presented in the tables below as normalized RNA levels, relative to untreated control cells.
A431 cells were treated with EGF or TGF at 200 ng/mL in the presence or absence of 1 μM of the EGFR tyrosine kinase inhibitor PD174265. The cells were then treated with compound no. 25690 or compound no. 395254 as in Example 8. Total RNA was isolated and analyzed by RT-qPCR, as in Example 8.
Following siRNA treatment, cells were treated with compound no. 25690 or compound no. 395254 in the presence or absence of EGF. 16 hours after treatment with a PS-ASO with or without EGF, cells were harvested, and RNA levels were analyzed via RT-qPCR as in Example 8.

AGGAAGGAAGCTGGCGATCT (sugars from the 5' end e5 d10 e5, all phosphorothioate, methylation of C not given here) [compound 25690]
Drosha mRNA (% Control) (19.5 nM, Control): 100.0 % Control
Drosha mRNA (% Control) (19.5 nM, EGF): 100.0 % Control
Drosha mRNA (% Control) (19.5 nM, TGF): 100.0 % Control
Drosha mRNA (% Control) (39 nM, Control): 104.3 % Control
Drosha mRNA (% Control) (39 nM, EGF): 98.0 % Control
Drosha mRNA (% Control) (39 nM, TGF): 95.1 % Control
Drosha mRNA (% Control) (78 nM, Control): 100.3 % Control
Drosha mRNA (% Control) (78 nM, EGF): 98.0 % Control
Drosha mRNA (% Control) (78 nM, TGF): 80.2 % Control
Drosha mRNA (% Control) (97.7 nM, Control): 100.0 % Control
Drosha mRNA (% Control) (97.7 nM, Control Luciferase siRNA): 100.0 % Control
Drosha mRNA (% Control) (97.7 nM, Control Luciferase siRNA, Table 26): 100.0 % Control
Drosha mRNA (% Control) (97.7 nM, Control luciferase + EGF): 100.0 % Control
Drosha mRNA (% Control) (97.7 nM, Control, Table 20): 100.0 % Control
Drosha mRNA (% Control) (97.7 nM, EGF): 100.0 % Control
Drosha mRNA (% Control) (97.7 nM, EGF+PD174265): 100.0 % Control
Drosha mRNA (% Control) (97.7 nM, EGFR siRNA-1): 100.0 % Control
Drosha mRNA (% Control) (97.7 nM, EGFR siRNA-2): 100.0 % Control
Drosha mRNA (% Control) (97.7 nM, EGFR siRNA-2 + EGF): 100.0 % Control
Drosha mRNA (% Control) (97.7 nM, EGFR siRNA-2, Table 26): 100.0 % Control
Drosha mRNA (% Control) (97.7 nM, TGF): 100.0 % Control
Drosha mRNA (% Control) (97.7 nM, TGF+PD174265): 100.0 % Control
Drosha mRNA (% Control) (156.25 nM, Control): 103.8 % Control
Drosha mRNA (% Control) (156.25 nM, EGF): 70.7 % Control
Drosha mRNA (% Control) (156.25 nM, TGF): 64.6 % Control
Drosha mRNA (% Control) (195 nM, Control): 110.0 % Control
Drosha mRNA (% Control) (195 nM, Control Luciferase siRNA): 81.4 % Control
Drosha mRNA (% Control) (195 nM, Control Luciferase siRNA, Table 26): 99.2 % Control
Drosha mRNA (% Control) (195 nM, Control luciferase + EGF): 110.2 % Control
Drosha mRNA (% Control) (195 nM, Control, Table 20): 110.0 % Control
Drosha mRNA (% Control) (195 nM, EGF): 98.2 % Control
Drosha mRNA (% Control) (195 nM, EGF+PD174265): 102.4 % Control
Drosha mRNA (% Control) (195 nM, EGFR siRNA-1): 103.0 % Control
Drosha mRNA (% Control) (195 nM, EGFR siRNA-2): 88.0 % Control
Drosha mRNA (% Control) (195 nM, EGFR siRNA-2 + EGF): 107.2 % Control
Drosha mRNA (% Control) (195 nM, EGFR siRNA-2, Table 26): 105.2 % Control
Drosha mRNA (% Control) (195 nM, TGF): 95.2 % Control
Drosha mRNA (% Control) (195 nM, TGF+PD174265): 108.0 % Control
Drosha mRNA (% Control) (312.5 nM, Control): 92.7 % Control
Drosha mRNA (% Control) (312.5 nM, EGF): 72.8 % Control
Drosha mRNA (% Control) (312.5 nM, TGF): 61.1 % Control
Drosha mRNA (% Control) (391 nM, Control): 99.7 % Control
Drosha mRNA (% Control) (391 nM, Control Luciferase siRNA): 67.0 % Control
Drosha mRNA (% Control) (391 nM, Control Luciferase siRNA, Table 26): 100.0 % Control
Drosha mRNA (% Control) (391 nM, Control luciferase + EGF): 100.0 % Control
Drosha mRNA (% Control) (391 nM, Control, Table 20): 99.3 % Control
Drosha mRNA (% Control) (391 nM, EGF): 89.4 % Control
Drosha mRNA (% Control) (391 nM, EGF+PD174265): 103.3 % Control
Drosha mRNA (% Control) (391 nM, EGFR siRNA-1): 78.9 % Control
Drosha mRNA (% Control) (391 nM, EGFR siRNA-2): 83.1 % Control
Drosha mRNA (% Control) (391 nM, EGFR siRNA-2, Table 26): 100.0 % Control
Drosha mRNA (% Control) (391 nM, TGF): 85.2 % Control
Drosha mRNA (% Control) (391 nM, TGF+PD174265): 91.2 % Control
Drosha mRNA (% Control) (625 nM, Control): 90.9 % Control
Drosha mRNA (% Control) (625 nM, EGF): 57.2 % Control
Drosha mRNA (% Control) (625 nM, TGF): 50.8 % Control
Drosha mRNA (% Control) (781 nM, Control): 88.4 % Control
Drosha mRNA (% Control) (781 nM, Control Luciferase siRNA): 56.6 % Control
Drosha mRNA (% Control) (781 nM, Control Luciferase siRNA, Table 26): 77.5 % Control
Drosha mRNA (% Control) (781 nM, Control luciferase + EGF): 60.8 % Control
Drosha mRNA (% Control) (781 nM, Control, Table 20): 87.2 % Control
Drosha mRNA (% Control) (781 nM, EGF): 81.4 % Control
Drosha mRNA (% Control) (781 nM, EGF+PD174265): 83.6 % Control
Drosha mRNA (% Control) (781 nM, EGFR siRNA-1): 62.3 % Control
Drosha mRNA (% Control) (781 nM, EGFR siRNA-2): 64.8 % Control
Drosha mRNA (% Control) (781 nM, EGFR siRNA-2 + EGF): 98.4 % Control
Drosha mRNA (% Control) (781 nM, EGFR siRNA-2, Table 26): 89.8 % Control
Drosha mRNA (% Control) (781 nM, TGF): 67.2 % Control
Drosha mRNA (% Control) (781 nM, TGF+PD174265): 87.2 % Control
Drosha mRNA (% Control) (1250 nM, Control): 75.7 % Control
Drosha mRNA (% Control) (1250 nM, EGF): 52.8 % Control
Drosha mRNA (% Control) (1250 nM, TGF): 43.4 % Control
Drosha mRNA (% Control) (1563 nM, Control): 83.2 % Control
Drosha mRNA (% Control) (1563 nM, Control Luciferase siRNA): 49.2 % Control
Drosha mRNA (% Control) (1563 nM, Control Luciferase siRNA, Table 26): 70.2 % Control
Drosha mRNA (% Control) (1563 nM, Control luciferase + EGF): 57.6 % Control
Drosha mRNA (% Control) (1563 nM, Control, Table 20): 76.3 % Control
Drosha mRNA (% Control) (1563 nM, EGF): 74.7 % Control
Drosha mRNA (% Control) (1563 nM, EGF+PD174265): 68.9 % Control
Drosha mRNA (% Control) (1563 nM, EGFR siRNA-1): 56.0 % Control
Drosha mRNA (% Control) (1563 nM, EGFR siRNA-2): 61.4 % Control
Drosha mRNA (% Control) (1563 nM, EGFR siRNA-2 + EGF): 79.4 % Control
Drosha mRNA (% Control) (1563 nM, EGFR siRNA-2, Table 26): 80.3 % Control
Drosha mRNA (% Control) (1563 nM, TGF): 65.9 % Control
Drosha mRNA (% Control) (1563 nM, TGF+PD174265): 78.7 % Control
Drosha mRNA (% Control) (2500 nM, Control): 63.6 % Control
Drosha mRNA (% Control) (2500 nM, EGF): 42.8 % Control
Drosha mRNA (% Control) (2500 nM, TGF): 40.1 % Control
Drosha mRNA (% Control) (3125 nM, Control): 66.6 % Control
Drosha mRNA (% Control) (3125 nM, Control Luciferase siRNA): 40.7 % Control
Drosha mRNA (% Control) (3125 nM, Control Luciferase siRNA, Table 26): 61.6 % Control
Drosha mRNA (% Control) (3125 nM, Control luciferase + EGF): 40.8 % Control
Drosha mRNA (% Control) (3125 nM, Control, Table 20): 67.2 % Control
Drosha mRNA (% Control) (3125 nM, EGF): 55.9 % Control
Drosha mRNA (% Control) (3125 nM, EGF+PD174265): 62.7 % Control
Drosha mRNA (% Control) (3125 nM, EGFR siRNA-1): 51.4 % Control
Drosha mRNA (% Control) (3125 nM, EGFR siRNA-2): 54.6 % Control
Drosha mRNA (% Control) (3125 nM, EGFR siRNA-2 + EGF): 75.4 % Control
Drosha mRNA (% Control) (3125 nM, EGFR siRNA-2, Table 26): 70.6 % Control
Drosha mRNA (% Control) (3125 nM, TGF): 47.2 % Control
Drosha mRNA (% Control) (3125 nM, TGF+PD174265): 64.2 % Control
Drosha mRNA (% Control) (5000 nM, Control): 47.6 % Control
Drosha mRNA (% Control) (5000 nM, EGF): 33.0 % Control
Drosha mRNA (% Control) (5000 nM, TGF): 31.9 % Control
